Patent US6451761B1, “N′N′-dichlorinated omega-amino acids and uses thereof” (Queen's University at Kingston, priority 1999, dated 2002)
Read-outs that look alike come from different tables or passages of the source. One block for each molecule: values may come before it.

How the values were obtained:
[1] = Stability on storage and in water or solvents (TLC and NMR monitoring); type: physicochemical
Method: Taurine (1.5 g) was suspended in a mixture of methanol (50 mL) and 4 M aqueous hydrochloric acid (25 mL). To this was added in small aliquots 4-6% aqueous sodium hypochlorite (40 mL) with stirring. The taurine dissolved with evolution of gentle heat. After 2 h the solution was concentrated (below 30° C.) to a small volume. Ethanol (200 mL) was added and the precipitated sodium chloride was removed by filtration. This procedure was repeated until no more precipitate formed. After concentration to a small volume of oily residue, 50/50 methanol-ethyl acetate (100 mL) was added, and the mixture was again filtered to remove residual sodium chloride. Upon reconcentration, the residue was treated with 0.04 M aqueous hydrochloric acid in acetone (25 mL). Slow concentration yielded white, iridescent plates, (0.7 g). […] Detection was by spraying with 2% KI-starch (yellow-brown) followed by ethanolic ninhydrin (faintly pink); M.P. 148° C. UV (λmax) 310 nm (ε1.851×10^2, 95% ethanol); ^1Hmr (D2O) 3.05-3.2(2H, m) and 3.95-4.05(2H, m); MS (es−): 191.9(18.76%), 193.8 (13.41%), 195.8(2.83%).
(§1) The chlorinaton and desalting methodology was essentially similar to that for taurine. […] Final isolation was from 50/50 (^v/v) diethylether-methanol plus dichloromethane, followed by slow evaporation at approximately 0-4° C. M.P. 197° C.; UV: λmax 308 (ε1.486×10^2, 95% ethanol); ^1Hmr (D2O) δ: 2.05-2.15 (2H, m, αCH2), 2.95-3.05 (2H, m, βCH2), 3.9-4.0 (2H, m, γCH2); MS (es−): 205.9(1.4%), 207.9(0.88%), 210.0(0.31%).
N,N-dichloro-GABA: UV: λmax 308 nm (ε2.974×10^2, 95% ethanol); ^1Hmr (CDCl3) δ: 1.95-2.05 (2H, m,αCH2), 2.4-2.5 (2H, m, βCH2), 3.6-3.75 (2H, m, γCH2). Decomposition in water was about 50% in 3 h at room temperature (TLC monitored). […]
The procedure for the synthesis of N′N′-dichloro-leucine was identical to that for the dichloroGABA. The product is a pale-yellow oil. When stored in dichloromethane, at −10° C.; the compound readily decomposed with an approximate half-life of 1 h.
From the above Examples it is apparent that dichlorination of ω-amino acids yields products which vary considerably in their stability. […] The most important precaution required for stable storage is the removal of all traces of water. […] A yield of between 30-60% was obtained, which can be improved by more efficiently exploiting the fact that primary amines are far less soluble than their chlorinated products in non-polar solvents. Those of ordinary skill in the art will recognize that the methods for isolation of the chlorinated amino acids described here can be extended to other α-carboxyl amino acids, as well as peptides and proteins.

[2] = Solubility in nonpolar solvents; type: physicochemical; conditions: compared with taurine homologue
Method: as §1

mice = conditions: for behaviour following injection: mice (20 g), 200 mg/Kg
Method: Two other mice (20 g) received dichlorotaurine (0.1 mL=100 mg/Kg) s.c. at 60 min intervals for three hours.

[3] = test system: rat brain amino acid profile; assay: Effect on rat brain amino acid profile; type: in vivo, Sprague-Dawley rats; conditions: for % change GABA / % change GLUTAMATE / % change RATIO GLU/TAU / % change RATIO GLY/GLU / % change TAURINE: dichlorotaurine vs taurine (control); for GABA tissue content / GLUTAMATE tissue content / TAURINE tissue content: 10-30 min prior to sacrifice; for GABA tissue content / GLUTAMATE tissue content / TAURINE tissue content / RATIO GLU/TAU / RATIO GLY/GLU: average of three rats
Method: Three Sprague-Dawley rats were each injected with taurine (200 mg/kg) (control), and another three Sprague-Dawley rats were each administered dichlorotaurine (200 mg/kg): one at 10 min (i.p.), one at 20 min (i.p.) and one at 30 min (i.v.) prior to sacrifice. The animals were anesthetized with ether and then sacrificied by cardiac perfusion with phosphate buffered saline for 5 min, before the brains were removed at room temp.
Brain regions were dissected by hand on a glass cold plate (4-6° C.). The samples were homogenized in 9× weight by volume of water, then perchloric acid was added to a final concentration of 0.6 M to precipitate proteins. Samples (20 μL) were neutralized with 15 μL 2M KHCO3. The extracts were centrifuged and supernatants were diluted with water 1:100. Amino acid analysis was performed by derivatization with o-phthaldialdehyde followed by liquid chromatography (Varian LC 5000 and Schoeffel FS 970 fluorometer). […] Identification and quantification by peak height was calibrated against a standard amino acid solution.
Data are shown in Table1, below, where each taurine (control) value and dichlorotaurine value is the average of the three respective rats. The amino acid values represent endogenous neural tissue content and not extracellular (release) concentrations. The most pronounced effects of the dichlorotaurine are on the cortex-hippocampus. The data are interpreted as directed towards reduced (↓) excitability. Moreover, the data provide evidence that administration of dichlorotaurine attenuates the pathological consequences of excessive glutamate release, which is known to occur under clinical conditions such as, for example, epilepsy, intractable pain disorders, Huntington's Disease, Parkinson's Disease, and abnormalities associated with CNS trauma (e.g., stroke, spinal cord injury, impact trauma).

[4] = mice, 100 mg/Kg s.c. at 60 min intervals for three hours
[5] = frontal cortex, rats, 200 mg/kg

Compound: O=C(O)CCCN(Cl)Cl [N,N-dichloro-GABA, N,N-dichloro-γ-aminobutyric Acid]
relative stability when in contact with water [1]: the least stable
Decomposition in water ([1]; 3 h at room temperature, TLC monitored): about 50%

Compound: O=C(O)CCN(Cl)Cl [N,N-dichloro-β-alanine, N′N′-dichloro-β-alanine]
relative stability in water or 95% ethanol [1]: More stable than N,N-dichloro-GABA

Compound: O=S(=O)(O)CCN(Cl)Cl [dichlorotaurine, N′N′-dichlorotaurine]
onset of severe ataxia, laboured breathing and grooming behaviour towards the site of injection (mice; male mice (20 g), 200 mg/Kg i.p.): ≤ 5 min
behaviour following injection (mice): very quiet, showed strongly reduced responsiveness to environmental stimuli, and reduced mobility
Onset of sedation following the first injection (mice; [4]): 5 min
effect of the two subsequent injections on behaviour (mice; [4]): did not aggravate nor modify the tranquil behaviour
time after last injection to start of return to normal behaviour (mice; [4]): Two to three hours
Observation for the next 24 h (mice; mouse, in vivo, sc, 100 mg/kg): did not reveal any abnormalities
interpretation ([3]; GABA changes): ↓ excitability
interpretation ([3]; GLUTAMATE changes): ↓ excitability
interpretation ([3]; RATIO GLU/TAU changes): ↓ excitability
interpretation ([3]; RATIO GLY/GLU changes): ↓ excitability
interpretation ([3]; TAURINE changes): ↓ excitability
% change GABA ([3]; brain stem): — (±15% considered non-significant: no change)
% change GLUTAMATE ([3]; brain stem): — (±15% considered non-significant: no change)
% change RATIO GLU/TAU ([3]; brain stem): −33%
% change RATIO GLY/GLU ([3]; brain stem): +19%
% change TAURINE ([3]; brain stem): —* (±15% considered non-significant: no change)
GABA tissue content ([3]; brain stem, rats, 200 mg/kg): 2.32 nmoles/mg wet weight
GLUTAMATE tissue content ([3]; brain stem, rats, 200 mg/kg): 7.19 nmoles/mg wet weight
TAURINE tissue content ([3]; brain stem, rats, 200 mg/kg): 2.63 nmoles/mg wet weight
RATIO GLU/TAU ([3]; brain stem, rats, 200 mg/kg): 2.50
RATIO GLY/GLU ([3]; brain stem, rats, 200 mg/kg): 1.55
% change GABA ([3]; cerebellum): — (±15% considered non-significant: no change)
% change GLUTAMATE ([3]; cerebellum): — (±15% considered non-significant: no change)
% change RATIO GLU/TAU ([3]; cerebellum): — (±15% considered non-significant: no change)
% change RATIO GLY/GLU ([3]; cerebellum): — (±15% considered non-significant: no change)
% change TAURINE ([3]; cerebellum): — (±15% considered non-significant: no change)
GABA tissue content ([3]; cerebellum, rats, 200 mg/kg): 1.97 nmoles/mg wet weight
GLUTAMATE tissue content ([3]; cerebellum, rats, 200 mg/kg): 10.29 nmoles/mg wet weight
TAURINE tissue content ([3]; cerebellum, rats, 200 mg/kg): 5.36 nmoles/mg wet weight
RATIO GLU/TAU ([3]; cerebellum, rats, 200 mg/kg): 2.01
RATIO GLY/GLU ([3]; cerebellum, rats, 200 mg/kg): 0.46
% change GABA ([3]; frontal cortex): +29%
% change GLUTAMATE ([3]; frontal cortex): −20%
% change RATIO GLU/TAU ([3]; frontal cortex): −33%
% change RATIO GLY/GLU ([3]; frontal cortex): +42%
% change TAURINE ([3]; frontal cortex): +30%
GABA tissue content [3, 5]: 2.93 nmoles/mg wet weight
GLUTAMATE tissue content [3, 5]: 11.90 nmoles/mg wet weight
TAURINE tissue content [3, 5]: 10.00 nmoles/mg wet weight
RATIO GLU/TAU [3, 5]: 1.32
RATIO GLY/GLU [3, 5]: 0.40
% change GABA ([3]; hippocampus): +32%
% change GLUTAMATE ([3]; hippocampus): — (±15% considered non-significant: no change)
% change RATIO GLU/TAU ([3]; hippocampus): −24%
% change RATIO GLY/GLU ([3]; hippocampus): +20%
% change TAURINE ([3]; hippocampus): +52%
GABA tissue content ([3]; hippocampus, rats, 200 mg/kg): 3.73 nmoles/mg wet weight
GLUTAMATE tissue content ([3]; hippocampus, rats, 200 mg/kg): 15.76 nmoles/mg wet weight
TAURINE tissue content ([3]; hippocampus, rats, 200 mg/kg): 11.22 nmoles/mg wet weight
RATIO GLU/TAU ([3]; hippocampus, rats, 200 mg/kg): 1.45
RATIO GLY/GLU ([3]; hippocampus, rats, 200 mg/kg): 0.43
brain region of the most pronounced effects ([3]; rats, 200 mg/kg): cortex-hippocampus
relative stability when in contact with water [1]: the most
stability when dry [1]: reasonably stable for up to a month
storage stability [1]: stable for at least one month without appreciable decomposition
decomposition in 95% ethanol ([1]; 95% ethanol, over 48 h): little or no decomposition
stable in water ([1]; water, ambient temperature, TLC and NMR monitoring): at least 3 h

Compound: NCCS(=O)(=O)O [taurine, reference compound]
behaviour following injection (mice): normal behaviour
GABA tissue content ([3]; brain stem, rats, 200 mg/kg): 2.25 nmoles/mg wet weight
GLUTAMATE tissue content ([3]; brain stem, rats, 200 mg/kg): 8.20 nmoles/mg wet weight
TAURINE tissue content ([3]; brain stem, rats, 200 mg/kg): 2.29 nmoles/mg wet weight
RATIO GLU/TAU ([3]; brain stem, rats, 200 mg/kg): 3.73
RATIO GLY/GLU ([3]; brain stem, rats, 200 mg/kg): 1.30
GABA tissue content ([3]; cerebellum, rats, 200 mg/kg): 2.25 nmoles/mg wet weight
GLUTAMATE tissue content ([3]; cerebellum, rats, 200 mg/kg): 11.32 nmoles/mg wet weight
TAURINE tissue content ([3]; cerebellum, rats, 200 mg/kg): 5.38 nmoles/mg wet weight
RATIO GLU/TAU ([3]; cerebellum, rats, 200 mg/kg): 2.15
RATIO GLY/GLU ([3]; cerebellum, rats, 200 mg/kg): 0.48
GABA tissue content [3, 5]: 2.28 nmoles/mg wet weight
GLUTAMATE tissue content [3, 5]: 15.04 nmoles/mg wet weight
TAURINE tissue content [3, 5]: 7.67 nmoles/mg wet weight
RATIO GLU/TAU [3, 5]: 1.98
RATIO GLY/GLU [3, 5]: 0.28
GABA tissue content ([3]; hippocampus, rats, 200 mg/kg): 2.83 nmoles/mg wet weight
GLUTAMATE tissue content ([3]; hippocampus, rats, 200 mg/kg): 13.82 nmoles/mg wet weight
TAURINE tissue content ([3]; hippocampus, rats, 200 mg/kg): 7.38 nmoles/mg wet weight
RATIO GLU/TAU ([3]; hippocampus, rats, 200 mg/kg): 1.91
RATIO GLY/GLU ([3]; hippocampus, rats, 200 mg/kg): 0.36

Continued, in another order:

relative stability when in contact with water ([1]; in contact with water): the least stable
half-life ([1]; stored in dichloromethane at −10° C., read-out: half-life of decomposition (converted)): ~1 h
Compound: CC(C)C[C@@H](C(=O)O)N(Cl)Cl [N′N′-dichloro-leucine, N,N-dichloro-L-leucine, reference compound]

solubility in nonpolar solvents [2]: more soluble in nonpolar solvents
melting point: 197 °C
hygroscopicity [1]: Fairly hygroscopic
stability in a humid atmosphere ([1]; humid atmosphere, compared with taurine homologue): more unstable than its taurine homologue
half-life ([1]; in water, read-out: t1/2 of decomposition to homotaurine (converted)): 24 h
Compound: O=S(=O)(O)CCCN(Cl)Cl [dichlorohomotaurine, N,N-dichlorohomotaurine]
behaviour following injection (mice): almost indistinguishable from that observed with the taurine homologue
